Results from patent publication US6428969B1, “Method for determining oncogenic activity of a substance” (Ludwig Institute for Cancer Research, priority 1997, dated 2002).

B1: IFNγ: cytokine interferonγ; human IFNγ used on human tumor cell lines (protein, UniProt P01579 24-161, looked up)
Interferon gamma: QDPYVKEAENLKKYFNAGHSDVADNGTLFLGILKNWKEESDRKIMQSQIVSFYFKLFKNFKDDQSIQKSVETIKEDMNVKFFNSNKKKRDDFEKLTNYSVTDLNVQRKAIHELIQVMAELSPAAKTGKRKRSQMLFRG

Key:
p53−/+ mice = conditions: cited from earlier work
IFNγR−/− mice = assay: MCA-induced tumor formation at the injection site; type: in vivo, mouse
Source text: (§1) Initially, tumor formation was examined in groups of 15-20 IFNγR^−/^− mice generated as described in Example 1 and wild type inbred 129/Sv/Ev mice as controls. All animals were greater than 6 weeks old (ranging in age from about 6 to about 12 weeks). The 129/Sv/Ev background was specifically chosen for these experiments since 129/Sv/Ev mice are relatively resistant to the tumorigenic actions of MCA and the pure background of the mice insured that in vivo growth of the resulting tumors could be studied using tumor transplantation approaches. The knockout and control mice were injected subcutaneously in a single dose with 25, 100, or 400 μg of the chemical carcinogen 3-methylcholanthrene (MCA) diluted in peanut oil and monitored for tumor development at the injection site for a period of 130 days. The results are shown in FIG. 1A, which represents the percentage of mice in each group with a tumor over 5 mm as a function of the number of days after injection.
(§2) Groups of IFNγR^−/− mice and STAT1^−/^− mice were generated as described in Examples 1 and 2 and compared to a control group of 129/Sv/Ev wild-type mice. All animals were greater than 6 weeks old (ranging in age from about 6 to about 12 weeks). Each of 20-25 animals per group, were injected subcutaneously with a single dose of MCA at 1.5, 6.25, 25, 100 or 400 μg and monitored for tumor development.

wild type 129/Sv/Ev mice = assay: MCA-induced tumor formation at the injection site; type: in vivo, mouse; conditions: for tumor development: Example 5
Source text: as §1, §2

Stat1−/− mice = assay: MCA-induced tumor formation at the injection site; type: in vivo, mouse
Protocol: as §2

[1] = tested on: IFNγ-responsive and IFNγ-unresponsive mice; assay: Histologic comparison of MCA-induced tumors; type: in vivo; conditions: three mouse strains; data not shown
Protocol: Both types of IFNγ insensitive mice developed MCA-induced tumors more frequently than wild-type mice. Tumor formation was detected in IFNγR^−/− mice treated with as little as 6.25 μg MCA.

[2] = tested on: perforin-deficient (PKO) mice; conditions: subcutaneous injection; cited from earlier work
α chain knockout mice = conditions: mouse, in vivo; cited from earlier work
A457 = assay: MHC class I surface expression by flow cytometry; type: cell-based, human; conditions: IFNγ 1000 IRU/ml or IFNαA/D 1000 U/ml, 72 hr, mean channel shift vs untreated cells
Protocol: (§3) To address this question IFNγ responsiveness was examined in a variety of tumor cell lines obtained from human tumor cell banks. Established cell lines were cultured in the presence of either buffer, human IFNγ (1000 IRU/ml), or human IFNαA/D (1000 U/ml) for 72 hr followed by quantitation of MHC class I surface expression by flow cytometry with the antibody W6/32 as previously described (Farrar et al., supra). W6/32 is a murine monoclonal antibody specific for a framework region of human MHC Class I and was kindly provided by Dr. Thalachallour Mohanakumar (Washington University, St. Louis, Mo.). IFNγ-dependent STAT1 activation was assessed by treating cells with either PBS or human IFNγ at 10,000 IRU/ml for 5 minutes at 37° C. followed by subjecting 5 μg of nuclear extract to EMSA using a ^32P-labeled GRR probe as described by Greenlund et al., EMBO J. 13:1591, 1994, which is incorporated herein by reference.
(§4) The experiment was repeated with 17 human adenocarcinoma cell lines and the data are shown in Table I below, with the induction of MHC class I expression represented as the mean channel shift between IFNγ-treated cells and untreated cells. […] The CALU-5 cell line was also insensitive to IFNα. None of the cell lines examined show IFNα-specific unresponsiveness.

A549 = assay: MHC class I surface expression by flow cytometry; type: cell-based, human; conditions: IFNγ 1000 IRU/ml or IFNαA/D 1000 U/ml, 72 hr, mean channel shift vs untreated cells
Protocol: as §3, §4

CALU-3 = assay: MHC class I surface expression by flow cytometry; type: cell-based, human; conditions: IFNγ 1000 IRU/ml or IFNαA/D 1000 U/ml, 72 hr, mean channel shift vs untreated cells
Protocol: as §3, §4

CALU-5 = assay: MHC class I surface expression by flow cytometry; type: cell-based, human; conditions: for MHC Class I Enhancement (MCS): IFNγ 1000 IRU/ml or IFNαA/D 1000 U/ml, 72 hr, mean channel shift vs untreated cells
Protocol: as §3, §4

SK-LC-10 = assay: MHC class I surface expression by flow cytometry; type: cell-based, human; conditions: IFNγ 1000 IRU/ml or IFNαA/D 1000 U/ml, 72 hr, mean channel shift vs untreated cells
Protocol: as §3, §4

SK-LC-11 = assay: MHC class I surface expression by flow cytometry; type: cell-based, human; conditions: IFNγ 1000 IRU/ml or IFNαA/D 1000 U/ml, 72 hr, mean channel shift vs untreated cells
Protocol: as §3, §4

SK-LC-12 = assay: MHC class I surface expression by flow cytometry; type: cell-based, human; conditions: IFNγ 1000 IRU/ml or IFNαA/D 1000 U/ml, 72 hr, mean channel shift vs untreated cells
Protocol: as §3, §4

SK-LC-15 = assay: MHC class I surface expression by flow cytometry; type: cell-based, human; conditions: IFNγ 1000 IRU/ml or IFNαA/D 1000 U/ml, 72 hr, mean channel shift vs untreated cells
Protocol: as §3, §4

SK-LC-16 = assay: MHC class I surface expression by flow cytometry; type: cell-based, human; conditions: IFNγ 1000 IRU/ml or IFNαA/D 1000 U/ml, 72 hr, mean channel shift vs untreated cells
Protocol: as §3, §4

SK-LC-19 = assay: MHC class I surface expression by flow cytometry; type: cell-based, human; conditions: for MHC Class I Enhancement (MCS): SK-LC-19, IFNγ 1000 IRU/ml or IFNαA/D 1000 U/ml, 72 hr, mean channel shift vs untreated cells
Protocol: as §3, §4

SK-LC-1 = assay: MHC class I surface expression by flow cytometry; type: cell-based, human; conditions: IFNγ 1000 IRU/ml or IFNαA/D 1000 U/ml, 72 hr, mean channel shift vs untreated cells
Protocol: as §3, §4

SK-LC-20 = assay: MHC class I surface expression by flow cytometry; type: cell-based, human; conditions: IFNγ 1000 IRU/ml or IFNαA/D 1000 U/ml, 72 hr, mean channel shift vs untreated cells
Protocol: as §3, §4

SK-LC-2 = assay: MHC class I surface expression by flow cytometry; type: cell-based, human; conditions: for MHC Class I Enhancement (MCS): IFNγ 1000 IRU/ml or IFNαA/D 1000 U/ml, 72 hr, mean channel shift vs untreated cells
Protocol: as §3, §4

SK-LC-4 = assay: MHC class I surface expression by flow cytometry; type: cell-based, human; conditions: IFNγ 1000 IRU/ml or IFNαA/D 1000 U/ml, 72 hr, mean channel shift vs untreated cells
Protocol: as §3, §4

SK-LC-7 = assay: MHC class I surface expression by flow cytometry; type: cell-based, human; conditions: for MHC Class I Enhancement (MCS): IFNγ 1000 IRU/ml or IFNαA/D 1000 U/ml, 72 hr, mean channel shift vs untreated cells
Protocol: as §3, §4

SK-LC-9 = assay: MHC class I surface expression by flow cytometry; type: cell-based, human; conditions: IFNγ 1000 IRU/ml or IFNαA/D 1000 U/ml, 72 hr, mean channel shift vs untreated cells
Protocol: as §3, §4

SK-LU-1 = assay: MHC class I surface expression by flow cytometry; type: cell-based, human; conditions: IFNγ 1000 IRU/ml or IFNαA/D 1000 U/ml, 72 hr, mean channel shift vs untreated cells
Protocol: as §3, §4

[3] = tested on: 33 melanoma and 17 lung tumor cell lines classified as non-adenocarcinoma; assay: Preliminary study of IFNγ sensitivity of tumor cell lines; type: cell-based, human; conditions: of each group (33 melanoma, 17 lung non-adenocarcinoma lines), data not shown
Protocol: as §3

RADgR.28.mgR cells = assay: Antiproliferative or anti-metabolic effects of IFNγ in culture; type: cell-based, mouse; conditions: IFNγ alone or in combination with other cytokines, in vitro; data not shown
Source text: Having identified the tumor cell as the major target of IFNγ's actions, experiments were designed to define the mechanism underlying the rejection process. IFNγ can induce an antiproliferative state in certain cell types.

[4] = 400 μg MCA, single s.c. dose, at 130 days

Row | Molecule | tumor induction (p53−/+ mice) | MHC Class I Enhancement (MCS) (A457) | MHC Class I Enhancement (MCS) (A549) | MHC Class I Enhancement (MCS) (CALU-3) | MHC Class I Enhancement (MCS) (CALU-5) | MHC Class I Enhancement (MCS) (SK-LC-10) | MHC Class I Enhancement (MCS) (SK-LC-11) | MHC Class I Enhancement (MCS) (SK-LC-12) | MHC Class I Enhancement (MCS) (SK-LC-15) | MHC Class I Enhancement (MCS) (SK-LC-16) | MHC Class I Enhancement (MCS) (SK-LC-19) | MHC Class I Enhancement (MCS) (SK-LC-1) | MHC Class I Enhancement (MCS) (SK-LC-20) | MHC Class I Enhancement (MCS) (SK-LC-2) | MHC Class I Enhancement (MCS) (SK-LC-4) | MHC Class I Enhancement (MCS) (SK-LC-7) | MHC Class I Enhancement (MCS) (SK-LC-9) | MHC Class I Enhancement (MCS) (SK-LU-1) | further results
1 | C1CC2OC2CC1C1CO1 (stereo not drawn) [VCD, 4-vinyl-1-cyclohexene diepoxide] | tumors were induced | – | – | – | – | – | – | – | – | – | – | – | – | – | – | – | – | – | –
2 | Cc1ccc2cc3c(ccc4ccccc43)c3c2c1CC3 [MCA, 3-methylcholanthrene] | – | – | – | – | – | – | – | – | – | – | – | – | – | – | – | – | – | – | mice forming tumors at the lower MCA dose (IFNγR−/− mice; 25 μg MCA s.c., Example 4): high percentage; percentage of mice that developed tumors (over 5 mm) (IFNγR−/− mice; [4]): 50%; time at which tumors were detected (IFNγR−/− mice; all dose groups (25, 100, 400 μg MCA s.c.)): 90 days; tumor development compared with wild-type mice (IFNγR−/− mice; all doses examined (25, 100, 400 μg)): more frequently and at earlier times; lowest MCA dose at which tumor formation was detected (IFNγR−/− mice; single s.c. dose, within 130 days, Example 5): 6.25 µg; tumor development (wild type 129/Sv/Ev mice; 25 μg MCA): not; tumor development (wild type 129/Sv/Ev mice; 400 μg MCA): developed tumors; percentage of mice in which tumors were detected (over 5 mm) (wild type 129/Sv/Ev mice; [4]): 20%; MCA dose at which tumors formed (wild type 129/Sv/Ev mice; single s.c. dose, 130 days, Example 4): ≥ 100 µg; frequency of tumors relative to IFNγR−/− mice (Stat1−/− mice; at every dose examined): approximately two times; lowest MCA dose at which tumors could be detected (Stat1−/− mice; single s.c. dose, within 130 days): 1.6 μg MCA/mouse; histology of induced tumors [1]: histologically indistinguishable fibrosarcomas; sarcomas at the injection site compared with normal MCA-treated mice [2]: higher frequency and with accelerated onset of tumor; tumors in α chain knockout mice compared with wild-type controls (α chain knockout mice): more tumors
3 | COc1ccc(C)cc1N [p-cresidine] | tumors were induced | – | – | – | – | – | – | – | – | – | – | – | – | – | – | – | – | – | –
4 | IFNα | – | 27.1 MCS | 21.8 MCS | 17.0 MCS | 0.0 MCS | 22.6 MCS | 13.8 MCS | 12.7 MCS | 79.6 MCS | 10.9 MCS | 25.1 MCS | 18.7 MCS | 25.9 MCS | 16.7 MCS | 36.7 MCS | 37.2 MCS | 53.4 MCS | 16.7 MCS | sensitivity to IFNα (CALU-5): insensitive
5 | B1 | – | 27.7 MCS | 36.9 MCS | 30.4 MCS | 0.0 MCS | 31.7 MCS | 25.3 MCS | 30.4 MCS | 91.3 MCS | 27.0 MCS | 0.0 MCS | 16.9 MCS | 25.6 MCS | 0.0 MCS | 59.5 MCS | 0.0 MCS | 49.3 MCS | 47.1 MCS | responsiveness to IFNγ (initiation of IFNγ-signaling or IFNγ dependent biologic response) (CALU-5): totally unresponsive; responsiveness to IFNγ (initiation of IFNγ-signaling or IFNγ dependent biologic response) (SK-LC-19; SL-LC-19 as printed): totally unresponsive; responsiveness to IFNγ (initiation of IFNγ-signaling or IFNγ dependent biologic response) (SK-LC-2): totally unresponsive; responsiveness to IFNγ (initiation of IFNγ-signaling or IFNγ dependent biologic response) (SK-LC-7): totally unresponsive; share of cell lines showing a quantitative reduction in IFNγ sensitivity [3]: approximately 33%; antiproliferative or anti-metabolic effects (RADgR.28.mgR cells): no antiproliferative or anti-metabolic effects
